Data as given in patent US20230372364A1, “METHOD OF TREATING GABA MEDIATED DISORDERS” (Eliem Therapeutics (UK) Ltd, priority 2020, published 2023).
“And” between values parts separate entries of the source, which are not always exact repeats. Equal values may be shown once. “Also recorded” adds a separate entry of the source. Marks after values point to notes of the source that are not given here.

Key:
[1] = Single ascending oral dose pharmacokinetics in humans; type: in vivo; settings: human
Description: The pharmacokinetic properties of CV-10155 in humans were analyzed. Subjects were given a single oral dose of CV-10155, and plasma concentrations were measured at various time points. Various dosages were given to fasting subjects, and 30 mg dose was given to a subjects in a fed state.
FIG. 15 is a graph of the average plasma concentration of CV-10155 following oral administration to humans. Purple circles represent 5 mg, fasted; green diamonds represent 15 mg, fasted; red squares represent 30 mg fasted; blue triangles represent 30 mg, fed; purple crosses represent 60 mg, fasted; teal 5-pointed stars represent 90 mg, fasted; olive 6-pointed stars represent 135 mg, fasted; and brown 10-pointed stars represent 200 mg fasted.
FIG. 16 is a graph of the average plasma concentration of CV-10155 following oral administration of a 30 mg dose to humans. Blue triangles represent fasted; and red circles represent fed.
The pharmacokinetic properties of CV-10155 and Sage-217 in humans were compared. The day 7 from subjects given either 60 mg CV-10155 in the morning in a fasted state or 30 mg Sage-217 were analyzed. Results from multiple ascending dose studies are shown in Table 10, and results from single ascending dose studies are shown in Table 11.

[2] = test system: human subjects; assay: 60 mg once daily for seven days, adverse events in humans (MAD); type: in vivo; settings: for AE Sleepiness (Nervous system disorders): listed three times in the table; for AE Headache (Nervous system disorders): listed twice in the table
Description: The effects of CV-10155 in relation to administration at different times of the day and states of feeding were analyzed in humans. Subjects were given 60 mg CV-10155 orally once per day for seven consecutive days, and plasma concentrations were measured at various time points. Doses were administered either in the morning to fasted subjects or in the evening to fed subjects.
Adverse events observed following administration of a single dose of CV-10155 in the evening in a fed state are summarized on Table 6.
A comparison of adverse events observed following administration to fasted subjects in the morning and to fed subjects in the evening is provided in Table 7.
The tolerability of the neurosteroids CV-10155, Sage-217, and Praxis-114 in human subjects were compared. The results from subjects that received 45 mg Praxis-114 in the evening, 60 mg Praxis-114 in the evening, 80 mg Praxis-114 in the evening, or 60 mg CV-10155 in the evening are provided in Table 8, and the results form subjects that received 30 mg Sage-217 or 20 mg Sage-217 are provided in Table 9.

[3] = test system: rats; assay: Sleep states by electroencephalogram (EEG) in rats; type: in vivo, rat
Description: The effect of CV-10155 on various sleep states was analyzed in rats. Rats were given various doses of CV-10155, and sleep states were analyzed by electroencephalogram (EEG).

[4] = biological target: T1, CYP2C8 (Homo sapiens, UniProt P10632); assay: Repaglinide drug-drug interaction in humans; type: in vivo; settings: repaglinide exposure after 14 day repeat doses
T1 construct: from tissue; host or cells: human volunteers in vivo (endogenous, mainly hepatic, enzyme: own knowledge)
T1 sequence (P10632 1-490): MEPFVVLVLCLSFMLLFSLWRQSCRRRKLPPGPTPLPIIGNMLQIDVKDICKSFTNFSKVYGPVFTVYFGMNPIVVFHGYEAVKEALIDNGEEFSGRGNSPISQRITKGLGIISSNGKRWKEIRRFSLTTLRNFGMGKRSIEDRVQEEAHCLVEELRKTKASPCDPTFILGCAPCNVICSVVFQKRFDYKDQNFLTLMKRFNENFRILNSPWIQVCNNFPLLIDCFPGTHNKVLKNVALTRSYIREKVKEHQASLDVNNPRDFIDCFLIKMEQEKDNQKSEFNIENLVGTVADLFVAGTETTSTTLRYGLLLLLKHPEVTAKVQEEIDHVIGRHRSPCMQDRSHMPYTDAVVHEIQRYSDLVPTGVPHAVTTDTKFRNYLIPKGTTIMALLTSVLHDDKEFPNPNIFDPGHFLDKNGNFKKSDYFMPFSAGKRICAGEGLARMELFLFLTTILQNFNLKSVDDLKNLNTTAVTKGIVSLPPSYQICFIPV

[5] = test system: dogs; assay: Repeat-dose toxicity up to four weeks, dogs; type: in vivo, dog; settings: 28-day repeat dose
Description: (§1) The no-observed-adverse-effect-level doses were 7.5/mg/kg/day and 6 mg/kg/day in rats and dogs, respectively.
Justification for Dose—Based on the nonclinical toxicology data, there is not an unreasonable risk of adverse effects. Using the FDA guidance “Estimating the Maximum Safe Starting Dose in Initial Clinical Trials for Therapeutics in Adult Healthy Volunteers” (July, 2005), the calculated human equivalent dose would be 1/2 mg/kg/day or 3/24 mg/kg/day, respectively, based on the 28-day rat no-observed-adverse-effect-level dose of 7.5 mg/kg/day or the 28-day dog no-observed-adverse-effect-level dose of 6 mg/kg/day, respectively. For both species the no-observed-adverse-effect-level dose was the highest dose tested. For a 60 kg participant, this would result in a maximum safe starting dose of (human equivalent dose/10) of 7.2 mg/day or 19/6 mg/day. The starting doses in this Phase 1 study are 5 mg, equivalent to […] for a 60 kg participant. […] These anticipated Cmax and AUC values are ˜80- and 50-fold lower, respectively, than that observed at the no-observed-adverse-effect-level dose in dogs.

[6] = test system: cardiovascular or respiratory function; assay: In vivo safety pharmacology studies
Description: as §1

[7] = test system: rodent models; assay: Tolerability in rodent models; type: in vivo; settings: at efficacious doses
Text: The compound of Formula (I) is also believed to show antiepileptic activity in maximal electroshock and pentylenetetrazol seizure models, antidepressant properties in the forced swim test, and anxiolytic properties in the elevated plus maze test.

[8] = 60 mg once daily for seven days, pharmacokinetics in humans (MAD); settings: human
[9] = 60 mg, evening, fed state, N = 9
[10] = 60 mg, morning, fasted state, N = 9
[11] = HV, 60 mg evening dosing, n = 12
[12] = human, 60 mg, evening, fed state, one line per subject and event

C[C@@]1(O)CC[C@@]2(C)[C@@H](CC[C@@H]3[C@@H]2CC[C@]2(C)[C@@H](C(=O)Cn4cc(C#N)cn4)CC[C@@H]32)C1 [CV-10155, 1-[2-[(3R,5S,8R,9S,10S,13S,14S,17S)-3-hydroxy-3,10,13-trimethyl-1,2,4,5,6,7,8,9,11,12,14,15,16,17-tetradecahydrocyclopenta[a]phenanthren-17-yl]-2-oxoethyl]pyrazole-4-carbonitrile]
effect of food consumption on absorption ([1]; 30 mg oral, fed vs fasted): no clinically meaningful effect | Tmax ([1]; 135 mg SAD MTD): 2.83 h | Tmax ([1]; single oral dose, 5-200 mg): 2 to 4 h | half-life ([1]; single oral dose, 5-200 mg): 24 to 26 h | inter-subject variability (CV) of AUC and Cmax ([1]; single oral dose, 5-200 mg): ≤ 30% | dose proportionality of AUC and Cmax ([1]; single oral dose, 5-200 mg dose range): dose-proportional increase | AE Back pain (Musculoskeletal and connective tissue disorders) [2, 9]: 1 # | AE Bloating (Gastrointestinal disorders) [2, 9]: 1 # | AE Dizziness (Nervous system disorders) [2, 9]: 1 # | AE Sleepiness (Nervous system disorders) [2, 9]: 1 # | AE Headache (Nervous system disorders) [2, 9]: 2 # | AE Dizziness (Nervous system disorders) [2, 10]: 1 # | AE Feeling sleepy (Nervous system disorders) [2, 10]: 1 # | AE Feeling tired (General disorders and administration site conditions) [2, 10]: 2 # | AE Tiredness (General disorders and administration site conditions) [2, 10]: 3 # | AE Sleepiness (Nervous system disorders) [2, 10]: 9 # | AE Headache (Nervous system disorders) [2, 10]: 2 # | Dizziness, AEs % of subjects [2, 11]: 16.7% | Headache, AEs % of subjects [2, 11]: 8.3% | Somnolence, AEs % of subjects [2, 11]: 8.3% | AE (per subject) [2, 12]: Dizziness; also recorded: Headache; also recorded: Somnolence; also recorded: Back pain; also recorded: Abdominal | AE duration [2, 12]: 20.50 h and 13.00 h and 14.50 h and 10.62 h and 39.25 h and 13.25 h and 06.50 h | AE onset from dose [2, 12]: pre-dose | AE severity [2, 12]: Mild (6×) and Moderate | adverse effects that interfere with sleeping ([2]; human, oral administration in the evening to fed subjects): does not produce adverse effects that interfere with sleeping | dose producing an increase in non-REM sleep ([3]; doses 1, 3, 6, 10 mg/kg): ≥ 3 mg/kg | target engagement ([3]; within well-tolerated and efficacious dose ranges): dose-dependent target engagement | DDI inhibitory effect at CYP2C8 level [4]: no or minimal DDI inhibitory effect | no-observed-adverse-effect-level dose [5]: 6 mg/kg/day | effect on cardiovascular or respiratory function [6]: does not affect | tolerability in rodent models [7]: well tolerated | ratio of Cmax/trough on day 7 ([8]; 60 mg daily in the evening in a fed state): 3.47 | ratio of Cmax/trough on day 7 ([8]; 60 mg daily in the morning in a fasted state): 6.09 | difference in absorption, morning fasted vs evening fed ([8]; 60 mg oral once per day for seven days): no significant difference | Ratio (Cmax/Cmin) ([8]; 60 mg, day 7 MAD, morning dosing): 6.07 | AUC0-inf ([8]; plasma, oral, 60 mg): 2900 ng·h/mL | concentration at 7 day ([8]; plasma, oral, 60 mg): 41.5 ng/mL
